Data reported in patent US20250171438A1 (Agios Pharmaceuticals, Inc., priority 2022, published 2025).

What follows are compounds tested against T1, human PAH with the R408W mutation (Homo sapiens, UniProt P00439, R408W) (assay: Cell Based Phenylalanine Flux Assay). Details: A375 cells expressing human R408W PAH; 24 hrs compound incubation; 13C-Tyrosine by LC-MS; average where tested multiple times; read-out: AC50.
T1 construct: expressed in transfected cells
T1 sequence (P00439 1-452 R408W): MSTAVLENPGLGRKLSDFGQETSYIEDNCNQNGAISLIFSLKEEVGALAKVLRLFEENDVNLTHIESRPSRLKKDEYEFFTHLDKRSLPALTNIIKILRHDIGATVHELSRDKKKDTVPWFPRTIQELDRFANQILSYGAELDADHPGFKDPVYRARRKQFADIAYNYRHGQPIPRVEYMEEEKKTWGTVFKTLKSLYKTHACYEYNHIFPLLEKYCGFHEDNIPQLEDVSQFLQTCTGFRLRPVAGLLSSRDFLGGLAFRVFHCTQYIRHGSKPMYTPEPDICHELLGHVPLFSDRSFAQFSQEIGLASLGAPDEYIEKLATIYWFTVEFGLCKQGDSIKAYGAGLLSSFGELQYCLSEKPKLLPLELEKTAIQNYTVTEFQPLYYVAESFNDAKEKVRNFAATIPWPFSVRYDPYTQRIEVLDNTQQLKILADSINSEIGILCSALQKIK

AC50 [nM]	SMILES
> 5000	O=C(CCc1nccs1)N1CCc2[nH]cnc2[C@@H]1c1nc2c(F)cccc2s1 [Example 1078, (R)-1-(4-(4-fluorobenzo[d]thiazol-2-yl)-6,7-dihydro-1H-imidazo[4,5-c]pyridin-5(4H)-yl)-3-(thiazol-2-yl)propan-1-one]
500 to 1000	Cc1csc(CCC(=O)N2CCc3[nH]cnc3[C@H]2c2nc3ccccc3s2)n1 [Example 1079]
> 5000	Cc1csc(CCC(=O)N2CCc3[nH]cnc3[C@@H]2c2nc3ccccc3s2)n1 [Example 1080, (R)-1-(4-(benzo[d]thiazol-2-yl)-6,7-dihydro-1H-imidazo[4,5-c]pyridin-5(4H)-yl)-3-(4-methylthiazol-2-yl)propan-1-one]
500 to 1000	O=C(CCc1nccs1)N1CCc2[nH]cnc2[C@H]1c1nc2ccc(Br)cc2s1 [Example 1081, (S)-1-(4-(6-bromobenzo[d]thiazol-2-yl)-6,7-dihydro-1H-imidazo[4,5-c]pyridin-5(4H)-yl)-3-(thiazol-2-yl)propan-1-one]
> 5000	O=C(CCc1nccs1)N1CCc2[nH]cnc2[C@@H]1c1nc2ccc(Br)cc2s1 [Example 1082, (R)-1-(4-(6-bromobenzo[d]thiazol-2-yl)-6,7-dihydro-1H-imidazo[4,5-c]pyridin-5(4H)-yl)-3-(thiazol-2-yl)propan-1-one]
< 500	COc1ccn2ncc(C(=O)N3CCc4[nH]cnc4[C@H]3c3nc4ccccc4s3)c2c1 [Example 1083]
1000 to 5000	COc1ccn2ncc(C(=O)N3CCc4[nH]cnc4[C@@H]3c3nc4ccccc4s3)c2c1 [Example 1084, (R)-(4-(benzo[d]thiazol-2-yl)-6,7-dihydro-1H-imidazo[4,5-c]pyridin-5(4H)-yl)(5-methoxypyrazolo[1,5-a]pyridin-3-yl)methanone]
< 500	N#Cc1ccn2ncc(C(=O)N3CCc4[nH]cnc4[C@H]3c3nc4ccccc4s3)c2c1 [Example 1085, (S)-3-(4-(benzo[d]thiazol-2-yl)-4,5,6,7-tetrahydro-1H-imidazo[4,5-c]pyridine-5-carbonyl)pyrazolo[1,5-a]pyridine-5-carbonitrile]
1000 to 5000	N#Cc1ccn2ncc(C(=O)N3CCc4[nH]cnc4[C@@H]3c3nc4ccccc4s3)c2c1 [Example 1086, (R)-3-(4-(benzo[d]thiazol-2-yl)-4,5,6,7-tetrahydro-1H-imidazo[4,5-c]pyridine-5-carbonyl)pyrazolo[1,5-a]pyridine-5-carbonitrile]
500 to 1000	Cc1ccc2c(C(=O)N3CCc4[nH]cnc4[C@H]3c3nc4ccccc4s3)cnn2c1 [Example 1087]
> 5000	Cc1ccc2c(C(=O)N3CCc4[nH]cnc4[C@@H]3c3nc4ccccc4s3)cnn2c1 [Example 1088, (R)-(4-(benzo[d]thiazol-2-yl)-6,7-dihydro-1H-imidazo[4,5-c]pyridin-5(4H)-yl)(6-methylpyrazolo[1,5-a]pyridin-3-yl)methanone]
500 to 1000	O=C(CCc1nnc(Br)s1)N1CCc2[nH]cnc2[C@H]1c1nc2ccccc2s1 [Example 1089]
> 5000	O=C(CCc1nnc(Br)s1)N1CCc2[nH]cnc2[C@@H]1c1nc2ccccc2s1 [Example 1090, (R)-1-(4-(benzo[d]thiazol-2-yl)-6,7-dihydro-1H-imidazo[4,5-c]pyridin-5(4H)-yl)-3-(5-bromo-1,3,4-thiadiazol-2-yl)propan-1-one]
> 5000	O=C(c1nc2c(F)cccc2s1)N1CCc2[nH]cnc2[C@@H]1c1nc2ccccc2s1 [Example 1091, (R)-(4-(benzo[d]thiazol-2-yl)-6,7-dihydro-1H-imidazo[4,5-c]pyridin-5(4H)-yl)(4-fluorobenzo[d]thiazol-2-yl)methanone]
500 to 1000	O=C(c1nc2c(F)cccc2s1)N1CCc2[nH]cnc2[C@H]1c1nc2ccccc2s1 [Example 1092]
500 to 1000	O=C(CCC1CC1)N1CCc2[nH]cnc2[C@H]1c1nc2ccc(F)cc2s1 [Example 1093, (S)-3-cyclopropyl-1-(4-(6-fluorobenzo[d]thiazol-2-yl)-6,7-dihydro-1H-imidazo[4,5-c]pyridin-5(4H)-yl)propan-1-one]
> 5000	O=C(CCC1CC1)N1CCc2[nH]cnc2[C@@H]1c1nc2ccc(F)cc2s1 [Example 1094, (R)-3-cyclopropyl-1-(4-(6-fluorobenzo[d]thiazol-2-yl)-6,7-dihydro-1H-imidazo[4,5-c]pyridin-5(4H)-yl)propan-1-one]
500 to 1000	O=C(c1nc2cc(F)ccc2s1)N1CCc2[nH]cnc2[C@H]1c1nc2ccccc2s1 [Example 1095]

AC50 [nM]	SMILES
> 5000	O=C(c1nc2cc(F)ccc2s1)N1CCc2[nH]cnc2[C@@H]1c1nc2ccccc2s1 [Example 1096, (R)-(4-(benzo[d]thiazol-2-yl)-6,7-dihydro-1H-imidazo[4,5-c]pyridin-5(4H)-yl)(5-fluorobenzo[d]thiazol-2-yl)methanone]
500 to 1000	O=C(c1cnco1)N1CCc2[nH]cnc2[C@H]1c1nc2ccccc2s1 [Example 1097]
> 5000	O=C(c1cnco1)N1CCc2[nH]cnc2[C@@H]1c1nc2ccccc2s1 [Example 1098, (R)-(4-(benzo[d]thiazol-2-yl)-6,7-dihydro-1H-imidazo[4,5-c]pyridin-5(4H)-yl)(oxazol-5-yl)methanone]
1000 to 5000	O=C(c1cnn2ccccc12)N1CCc2[nH]cnc2[C@H]1c1nc2ccc(F)cc2s1 [Example 1099, (S)-(4-(6-fluorobenzo[d]thiazol-2-yl)-6,7-dihydro-1H-imidazo[4,5-c]pyridin-5(4H)-yl)(pyrazolo[1,5-a]pyridin-3-yl)methanone]
> 5000	O=C(c1cnn2ccccc12)N1CCc2[nH]cnc2[C@@H]1c1nc2ccc(F)cc2s1 [Example 1100, (R)-(4-(6-fluorobenzo[d]thiazol-2-yl)-6,7-dihydro-1H-imidazo[4,5-c]pyridin-5(4H)-yl)(pyrazolo[1,5-a]pyridin-3-yl)methanone]
500 to 1000	O=C(c1nccs1)N1CCc2[nH]cnc2[C@H]1c1nc2cccc(F)c2s1 [Example 1101, (S)-(4-(7-fluorobenzo[d]thiazol-2-yl)-6,7-dihydro-1H-imidazo[4,5-c]pyridin-5(4H)-yl)(thiazol-2-yl)methanone]
1000 to 5000	O=C(c1nccs1)N1CCc2[nH]cnc2[C@@H]1c1nc2cccc(F)c2s1 [Example 1102, (R)-(4-(7-fluorobenzo[d]thiazol-2-yl)-6,7-dihydro-1H-imidazo[4,5-c]pyridin-5(4H)-yl)(thiazol-2-yl)methanone]
500 to 1000	O=C(c1cnn2ccc(F)cc12)N1CCc2[nH]cnc2[C@H]1c1nc2ccccc2s1 [Example 1103]
1000 to 5000	O=C(c1cnn2ccc(F)cc12)N1CCc2[nH]cnc2[C@@H]1c1nc2ccccc2s1 [Example 1104, (R)-(4-(benzo[d]thiazol-2-yl)-6,7-dihydro-1H-imidazo[4,5-c]pyridin-5(4H)-yl)(5-fluoropyrazolo[1,5-a]pyridin-3-yl)methanone]
500 to 1000	O=C(c1ncn2ccccc12)N1CCc2[nH]cnc2[C@H]1c1nc2cc(F)ccc2s1 [Example 1105, (S)-(4-(5-fluorobenzo[d]thiazol-2-yl)-6,7-dihydro-1H-imidazo[4,5-c]pyridin-5(4H)-yl)(imidazo[1,5-a]pyridin-1-yl)methanone]
1000 to 5000	O=C(c1ncn2ccccc12)N1CCc2[nH]cnc2[C@@H]1c1nc2cc(F)ccc2s1 [Example 1106, (R)-(4-(5-fluorobenzo[d]thiazol-2-yl)-6,7-dihydro-1H-imidazo[4,5-c]pyridin-5(4H)-yl)(imidazo[1,5-a]pyridin-1-yl)methanone]
< 500	O=C(c1cnn2ccc(Cl)cc12)N1CCc2[nH]cnc2[C@H]1c1nc2ccccc2s1 [Example 1107]
1000 to 5000	O=C(c1cnn2ccc(Cl)cc12)N1CCc2[nH]cnc2[C@@H]1c1nc2ccccc2s1 [Example 1108, (R)-(4-(benzo[d]thiazol-2-yl)-6,7-dihydro-1H-imidazo[4,5-c]pyridin-5(4H)-yl)(5-chloropyrazolo[1,5-a]pyridin-3-yl)methanone]
500 to 1000	O=C(c1cnn2ccccc12)N1CCc2[nH]cnc2[C@H]1c1nc2cccc(F)c2s1 [Example 1109, (S)-(4-(7-fluorobenzo[d]thiazol-2-yl)-6,7-dihydro-1H-imidazo[4,5-c]pyridin-5(4H)-yl)(pyrazolo[1,5-a]pyridin-3-yl)methanone]
500 to 1000	O=C(c1cnn2ccccc12)N1CCc2[nH]cnc2[C@@H]1c1nc2cccc(F)c2s1 [Example 1110, (R)-(4-(7-fluorobenzo[d]thiazol-2-yl)-6,7-dihydro-1H-imidazo[4,5-c]pyridin-5(4H)-yl)(pyrazolo[1,5-a]pyridin-3-yl)methanone]
500 to 1000	O=C(c1cnn2ccccc12)N1CCc2nc[nH]c2[C@H]1c1nc2c(F)cccc2s1 [Example 1111, (S)-(4-(4-fluorobenzo[d]thiazol-2-yl)-6,7-dihydro-3H-imidazo[4,5-c]pyridin-5(4H)-yl)(pyrazolo[1,5-a]pyridin-3-yl)methanone]
1000 to 5000	O=C(c1cnn2ccccc12)N1CCc2nc[nH]c2[C@@H]1c1nc2c(F)cccc2s1 [Example 1112, (R)-(4-(4-fluorobenzo[d]thiazol-2-yl)-6,7-dihydro-3H-imidazo[4,5-c]pyridin-5(4H)-yl)(pyrazolo[1,5-a]pyridin-3-yl)methanone]
1000 to 5000	O=C(CCC1CC1)N1CCc2nc[nH]c2[C@H]1c1nc2c(F)cccc2s1 [Example 1113, (S)-3-cyclopropyl-1-(4-(4-fluorobenzo[d]thiazol-2-yl)-6,7-dihydro-3H-imidazo[4,5-c]pyridin-5(4H)-yl)propan-1-one]
